In brackets after ≈: the same amount, converted by molar mass. Like-named read-outs stand apart in the source and are kept apart here.
Experiments:
HIV-1 (MT-2 cells) = assay: Anti-HIV MTT assay, inhibition of HIV-induced cell killing, MT-2 cells; assay type: cell-based, HIV-1 isolates IIIB and/or RF; conditions: Human immunodeficiency virus 1, MT2, 144 h, read-out: Viral MT-2
From the text: (§1) SRI has an established program for the primary antiviral analysis of compounds in microtiter assays which measure the ability of a selected compound to inhibit HIV-induced cell killing. This assay involves the conversion of the tetrazolium dye MTT to a colored formazan product by mitochondrial enzymes in metabolically active cells. This assay system is presently used at SRI to screen over 30,000 compounds per year. Briefly, the assay involves the infection of CEM or MT2 cells in round bottom 96-well plates. The compound of interest is added just prior to infection. Following 6 days of incubation at 37° C. the plates are stained with MTT. The results of the assay are quantitated spectrophotometrically on a Molecular Devices Vmax plate reader. The data is analyzed by linear regression utilizing an in-house software program to calculate antiviral activity. (IC25, IC50, IC95) and toxicity (TC25, TC50, TC95) as well as other values.
(§2) Primary antiviral assays are routinely performed in CEM or MT-2 cells.
(§3) Drugs will be solubilized in the appropriate vehicle such as distilled water or DMSO if necessary. Latex gloves, lab coats and masks are used during all phases of the handling process to prevent exposure to potentially harmful agents. The drug is prepared at the appropriate concentration and stored at -20° C. until used by the screening laboratory. The first dilution of each compound is made in a dilution tube with medium to yield a concentration two-fold that of the highest test concentration. Sterile titer tubes are then used to make serial one half-log dilutions of each compound. Following drug dilution, the diluted compound is added to the appropriate well of a 96-well microtiter plate. Up to 12 dilutions can be assayed conveniently in triplicate on a single plate with all appropriate controls including cell control, virus control, toxicity control, drug color control, medium control and plastic (background) control. When testing includes only six dilutions, two drugs can be assayed on a single microtiter plate. The drugs are added to the plate in a final volume of 100 microliters.
(§4) During the time the drug dilutions are prepared, cells are washed and counted. Viability is monitored by trypan blue dye exclusion and assays are not performed if the viability falls below 90%. Cells are maintained in an exponential growth phase and are split 1:2 on the day prior to assay to assure exponential growth rate.
(§5) For the primary screen, the cell lines utilized are CEM and MT-2. Unless otherwise indicated, the medium used is RPMI 1640 with 10% heat-inactivated fetal calf serum (FBS), glutamine and antibiotics.
(§6) Cells are propagated at 37° C. in an atmosphere of 5% CO2 in air. The virus employed for this work is HIV-1 isolates IIIB and/or RF, which are prepared by an acute infection process.
(§7) Briefly, virus-infected cells are pelleted on a daily basis beginning at three days post-infection until the virus has killed all of the cells in the culture. Reverse transcriptase activity and p24 ELISA are used to identify pools with the greatest amount of virus.
(§8) These 24-hour harvests are pooled, filtered and frozen at -90° C. Prior to use in the assay, the infectious pool of virus is titered on all available cell lines in order to determine the amount of virus required in the antiviral assay.
(§9) In general, pools produced by the acute infection method require the addition of one microliter of infectious virus per well resulting in the screening of drugs at a multiplicity of infection of 0.01. In this manner enough virus is prepared and frozen to complete over one thousand microtiter plates, allowing the testing of up to two thousand compounds from a single stock of infectious virus. The use of a single stock of virus for a long period of testing has very favorable effects on the repeatability of the assay systems.
(§10) Virus infection of the CEM and MT-2 cells for the antiviral assay is carried out in a bulk infection process. […]

HIV-1 protease = target: T1, HIV-1 protease (Human immunodeficiency virus type 1 group M subtype B, UniProt P04585); assay: biochemical; assay type: biochemical; conditions: for IC50 / Ki: 0.5M NaCl, 50 mM MES pH 5.6, 2% DMSO, 37° C., 200 μM substrate
T1 construct: purified HIV-1 protease
Procedure: 1. Proteolytic activity of purified HIV-1 protease was routinely measured using the chromogenic assay developed by Richards et al. (J. Biol. Chem. 265: 7733 (1990)). Synthetic peptide His-Lys-Ala-Arg-Val-Leu-Phe (pNO2)-Glu-Ala-Nle-Ser-NH2 (American Peptide Company) was used as the substrate.
2. The assay was carried out in 0.5M NaCl, 50 mM MES pH 5.6, 2% DMSO (dimethylsulfoxide) at 37° C. Cleavage of the scissile bond between leucine and paranitro-phenylalanine (Phe(pNO2)) was assayed by spectrophotometric monitoring of the decrease in absorbance at 305 nm. Initial velocity was determined as the rate of decline of absorbance during the first 100 seconds of reaction.
3. […] Between 15-25 concentrations of inhibitor were added and velocity of reaction was measured at each of the concentrations, as described above.
4. Inhibition constants were calculated using the method of Jackson et al. (Adv. in Enzyme Regulation 22: 187 (1984)).

HIV-1 (CEM cells) = assay: Anti-HIV MTT assay, inhibition of HIV-induced cell killing, CEM cells; assay type: cell-based, HIV-1 isolates IIIB and/or RF; conditions: Human immunodeficiency virus 1, CCRF-CEM, 144 h, CEM cell line (first position), 6 days, 37° C., read-out: Viral CEM
From the text: as §1, §2, §3, §4, §5, §6, §7, §8, §9, §10

[1] = MT-2 cells (second position), 6 days, 37° C., MTT

Row | SMILES | IC50 (HIV-1 (MT-2 cells); [1]) | IC50 (HIV-1 protease) | Ki (HIV-1 protease) | IC50 (HIV-1 (CEM cells)) | IC50 (HIV-1 (MT-2 cells)) | percent (inhibition) (HIV-1 protease; at 200 (μM))
1 | CCC1(N(CCO)C(=O)c2ccccc2CCC(O)Cc2ccccc2C(=O)N(CCO)C2(c3ccccc3)CCCC2)CCCC1 (stereo not shown) [Example 93] | 1.67 µg/mL (≈ 2.61 µM) | 104 nM | 2.3 nM | 1.35 µg/mL (≈ 2.11 µM) | – | –
2 | CCC1(N(CCO)C(=O)c2ccccc2CCC(O)Cc2ccc(C)cc2C(=O)N(CCO)C(C)(C)c2ccc(OCc3ccc[n+]([O-])c3)cc2)CCCC1 (stereo not shown) [Example 111] | 1.81 µg/mL (≈ 2.41 µM) | 52 nM | 8 nM | 1.03 µg/mL (≈ 1.37 µM) | – | –
3 | CC(C)(C)N(CCO)C(=O)c1ccccc1CCC(O)Cc1ccccc1C(=O)N(CCO)C(C)(C)c1ccccc1 (stereo not shown) [Example 91] | 5.28 µg/mL (≈ 9.19 µM) | 274 nM | 172 nM | 1.95 µg/mL (≈ 3.39 µM) | – | –
4 | CC(C)(c1ccccc1)N(CCO)C(=O)c1ccccc1CCC(O)Cc1ccccc1C(=O)N(CCO)C(C)(C)c1ccccc1 (stereo not shown) [Example 65] | 1.76 µg/mL (≈ 2.76 µM) | 82 nM | 31 nM | 0.89 µg/mL (≈ 1.4 µM) | – | –
5 | Cc1ccc(CC(O)CCc2ccccc2C(=O)N(CCO)C(C)(C)C)c(C(=O)N(CCO)C(C)(C)c2ccccc2)c1 (stereo not shown) [Example 74] | 5.54 µg/mL (≈ 9.41 µM) | 180 nM | 21 nM | 3.69 µg/mL (≈ 6.27 µM) | – | –
6 | CCCC(CC)(CC)N(CCO)C(=O)c1cc(C)ccc1CC(O)CCc1ccccc1C(=O)N(CCO)C1(CC)CCCC1 (stereo not shown) [Example 109] | – | 59 nM | 13.6 nM | 0.79 µg/mL (≈ 1.27 µM) | 0.59 µg/mL (≈ 0.947 µM) | –
7 | CC(C)(C)N(CCO)C(=O)c1ccccc1CCC(O)Cc1ccccc1C(=O)N(CCO)C(C)(C)c1ccncc1 (stereo not shown) [Example 77] | 16.4 µg/mL (≈ 28.5 µM) | 1230 nM | 1010 nM | 7.57 µg/mL (≈ 13.1 µM) | – | –
8 | CCC1(N(CCO)C(=O)c2ccccc2CCC(O)Cc2ccc(C)cc2C(=O)N(CCOC(=O)[C@@H](N)C(C)C)C(C)(C)c2ccccc2)CCCC1 (stereo partly shown) [Example 114] | 1.75 µg/mL (≈ 2.4 µM) | 398 nM | 230 nM | 2.11 µg/mL (≈ 2.9 µM) | – | –
9 | CCC1(N(CCO)C(=O)c2ccccc2CCC(O)Cc2ccc(C)cc2C(=O)N(CCO)C(C)(C)c2ccc(OCCCN(CCO)CCO)cc2)CCCC1 (stereo not shown) [Example 113] | 1.58 µg/mL (≈ 2 µM) | 103 nM | 10 nM | 1.73 µg/mL (≈ 2.19 µM) | – | –
10 | CCC1(N(CCO)C(=O)c2ccccc2CCC(O)Cc2ccc(C)cc2C(=O)N(CCO)C(CC)(CC)c2ccccc2)CCCC1 (stereo not shown) [Example 101] | 1.67 µg/mL (≈ 2.54 µM) | 102 nM | 4 nM | 4.16 µg/mL (≈ 6.33 µM) | – | –
11 | CC(C)(C)NC(=O)c1c(CCC(O)Cc2ccccc2C(=O)N(Cc2ncc[nH]2)C(C)(C)C)ccc2ccccc12 (stereo not shown) [Example 12] | – | 820 nM | 790 nM | 29.5 µg/mL (≈ 53.2 µM) | – | –
12 | CCC1(N(CCO)C(=O)c2ccccc2CCC(O)Cc2ccc(C)cc2C(=O)N(CCO)C(C)(C)c2ccccc2)CCCC1 (stereo not shown) [Example 18] | 0.53 µg/mL (≈ 0.843 µM) | – | – | 0.49 µg/mL (≈ 0.779 µM) | – | –
13 | CC(C)(C)NC(=O)c1ccccc1CC(O)CSc1ccc([N+](=O)[O-])cc1C(=O)NC(C)(C)C (stereo not shown) [Example 43] | – | – | – | – | – | 20%
14 | CC(C)(C)NC(=O)c1ccccc1CC(O)CSc1ccccc1C(=O)NC(C)(C)C (stereo not shown) [Example 23] | – | 75000 to 100000 nM | – | – | – | –
15 | CC(C)(C)NC(=O)c1cc2ccccc2cc1CCC(O)Cc1ccccc1C(=O)N(CCO)C(C)(C)C (stereo not shown) [Example 60] | – | 4100 nM | 2700 nM | – | – | –
